Assays:
Experiment in all cases: relative viability (nuclei count vs DMSO), 5 days (fraction); higher = more cells survive
[1] = compound: CC1CC(=O)N(C2=CN=C(N=C2N1C3CCCC3)NC4=C(C=C(C=C4)C(=O)NC5CCN(CC5)C)OC)C [NPK76-II-72-1] + COc1cc2c(Oc3ccc(NC(=O)C4(C(=O)Nc5ccc(F)cc5)CC4)cc3F)ccnc2cc1OCCCN1CCOCC1 [Foretinib] (partner 0.25 µM)
How it was run: (§1)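 Values are medians from duplicate plates. Each reflects relative viability, defined as the nuclei count of treated wells over that of vehicle wells. Lung cancer cell lines in 1536-well plates were pin-tool dosed one day after seeding with one drug alone or with a fixed anchor-drug dose plus five library-drug doses (not always all listed) in √10 steps, then fixed, stained and imaged at 4× after 5 days.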

[2] = compound: CC1CC(=O)N(C2=CN=C(N=C2N1C3CCCC3)NC4=C(C=C(C=C4)C(=O)NC5CCN(CC5)C)OC)C [NPK76-II-72-1] + C[C@@H](Oc1cc(-c2cnn(C3CCNCC3)c2)cnc1N)c1c(Cl)ccc(F)c1Cl [Crizotinib] (partner 1 µM)
How it was run: as §1

[3] = compound: CC1CC(=O)N(C2=CN=C(N=C2N1C3CCCC3)NC4=C(C=C(C=C4)C(=O)NC5CCN(CC5)C)OC)C [NPK76-II-72-1] + C[C@]1(O)C[C@@H](c2nc(-c3ccc4ccc(-c5ccccc5)nc4c3)c3c(N)nccn32)C1 [Linsitinib] (partner 1 µM)
How it was run: as §1

BI-2536 + Pictilisib = compound: CC[C@@H]1C(=O)N(C)c2cnc(Nc3ccc(C(=O)NC4CCN(C)CC4)cc3OC)nc2N1C1CCCC1 [BI-2536] + CS(=O)(=O)N1CCN(Cc2cc3nc(-c4cccc5[nH]ncc45)nc(N4CCOCC4)c3s2)CC1 [Pictilisib] (partner 1 µM)
How it was run: as §1

Row | Cell Line | relative viability ([1]; first compound 0.01 µM) | relative viability ([1]; first compound 0.03162 µM) | relative viability ([1]; first compound 0.1 µM) | relative viability ([1]; first compound 0.3162 µM) | relative viability ([1]; first compound 1 µM) | relative viability ([2]; first compound 0.01 µM) | relative viability ([2]; first compound 0.03162 µM) | relative viability ([2]; first compound 0.1 µM) | relative viability ([2]; first compound 0.3162 µM) | relative viability ([2]; first compound 1 µM) | relative viability ([3]; first compound 0.01 µM) | relative viability ([3]; first compound 0.03162 µM) | relative viability ([3]; first compound 0.1 µM) | relative viability ([3]; first compound 0.3162 µM) | relative viability ([3]; first compound 1 µM) | relative viability (BI-2536 + Pictilisib; first compound 0.01 µM) | relative viability (BI-2536 + Pictilisib; first compound 0.03162 µM) | relative viability (BI-2536 + Pictilisib; first compound 0.1 µM) | relative viability (BI-2536 + Pictilisib; first compound 0.3162 µM) | relative viability (BI-2536 + Pictilisib; first compound 1 µM)
1 | NCI-H2009 | 0.843 | 1.25 | 1.22 | 1.21 | 1.23 | 0.915 | 1.12 | 0.974 | 1.01 | 1.15 | 1.18 | 1.18 | 1.08 | 1.2 | 1.15 | 0.779 | 0.358 | 0.179 | 0.137 | 0.103
2 | NCI-H2405 | 1.05 | 1.08 | 0.999 | 1.03 | 1.17 | 0.863 | 0.951 | 0.816 | 0.798 | 0.855 | 0.88 | 1.01 | 0.905 | 0.819 | 1.08 | 0.369 | 0.391 | 0.265 | 0.0965 | 0.201
3 | NCI-H1755 | 0.968 | 0.916 | 0.883 | 0.893 | 0.917 | 0.866 | 0.864 | 0.838 | 0.837 | 0.939 | 0.972 | 1 | 0.947 | 1.01 | 0.985 | 0.424 | 0.399 | 0.157 | 0.151 | 0.175
4 | HCC-78 | 0.561 | 0.549 | 0.489 | 0.507 | 0.616 |  | 0.33 | 0.355 |  | 0.368 |  | 0.529 | 0.487 |  | 0.516 | 0.26 | 0.25 | 0.166 | 0.13 | 0.0467
5 | LOU-NH91 | 0.871 | 0.933 | 0.948 | 0.795 | 1 | 0.735 | 0.735 | 0.693 | 0.635 | 0.764 | 0.941 | 0.932 | 0.984 | 0.681 | 1.04 | 0.545 | 0.516 | 0.474 | 0.284 | 0.276
6 | IA-LM | 1.06 | 1.18 | 1.18 | 1.12 | 1.26 | 0.704 | 0.818 | 0.727 | 0.616 | 0.989 | 0.582 | 0.684 | 0.435 | 0.597 | 0.809 | 0.346 | 0.264 | 0.0753 | 0.0992 | 0.0622
7 | NCI-H3122 | 0.93 | 1.01 | 0.902 | 0.866 | 0.958 | 0.268 | 0.272 | 0.282 | 0.294 | 0.329 | 0.945 | 1.03 | 1.09 | 1.03 | 1.05 | 0.55 | 0.555 | 0.153 | 0.23 | 0.201

Reference: the supplement of paper PMC10307832
